Consider one molecule from publication PMC5218480 (PLoS ONE, 2017).

This test deals with MV-4-11 cells. As to the kind of experiment: Gene expression microarray analysis (Affymetrix PrimeView) and GSEA. Type of test: cell-based, human. To be noted: ProbeSet 11741070_a_at; LIST B. Set-up: RFU PODN (11730768_x_at) / Fold change /veh PODN (11730768_x_at) / RFU LINC00158 (11744669_a_at) / Fold change /veh LINC00158 (11744669_a_at) / RFU DUSP10 (11751237_a_at) / Fold change /veh DUSP10 (11751237_a_at) / RFU ID3 (11757404_x_at) / Fold change /veh ID3 (11757404_x_at) / RFU PLEKHG5 (11737974_s_at) / Fold change /veh PLEKHG5 (11737974_s_at) / RFU LRRC4B (11730491_at) / Fold change /veh LRRC4B (11730491_at) / RFU GIMAP4 (11747438_a_at) / Fold change /veh GIMAP4 (11747438_a_at) / RFU KRT8 (11758183_x_at) / Fold change /veh KRT8 (11758183_x_at) / RFU CNN1 (11734310_a_at) / Fold change /veh CNN1 (11734310_a_at) / RFU VPS37D (11726825_at) / Fold change /veh VPS37D (11726825_at) / RFU C10orf10 (11716522_x_at) / Fold change /veh C10orf10 (11716522_x_at) / RFU KIR2DL2 /// KIR2DL4 /// KIR2DL5A /// KIR2DL5B /// KIR2DS1 /// KIR2DS2 /// KIR2DS3 /// KIR2DS4 /// KIR3DL3 /// KIR3DL3 /// KIR3DS1 (11738374_at) / Fold change /veh KIR2DL2 /// KIR2DL4 /// KIR2DL5A /// KIR2DL5B /// KIR2DS1 /// KIR2DS2 /// KIR2DS3 /// KIR2DS4 /// KIR3DL3 /// KIR3DL3 /// KIR3DS1 (11738374_at) / RFU C1QL1 (11718748_at) / Fold change /veh C1QL1 (11718748_at) / RFU TMPRSS4 (11747572_a_at) / Fold change /veh TMPRSS4 (11747572_a_at) / RFU HAMP (11756126_x_at) / Fold change /veh HAMP (11756126_x_at) / RFU RNFT2 (11725882_a_at) / Fold change /veh RNFT2 (11725882_a_at) / RFU NR4A2 (11747474_a_at) / Fold change /veh NR4A2 (11747474_a_at) / RFU ABCC12 (11746883_a_at) / Fold change /veh ABCC12 (11746883_a_at) / RFU TMEM136 (11760407_x_at) / Fold change /veh TMEM136 (11760407_x_at) / RFU CLDN22 /// WWC2 (11732394_at) / Fold change /veh CLDN22 /// WWC2 (11732394_at) / RFU HLA-DPB1 (11760878_x_at) / Fold change /veh HLA-DPB1 (11760878_x_at) / RFU SPINT1 (11716480_a_at) / Fold change /veh SPINT1 (11716480_a_at) / RFU GAP43 (11754022_s_at) / Fold change /veh GAP43 (11754022_s_at) / RFU A4GNT (11735810_at) / Fold change /veh A4GNT (11735810_at) / RFU PRB3 (11715151_x_at) / Fold change /veh PRB3 (11715151_x_at) / RFU TUBB4B (11761932_at) / Fold change /veh TUBB4B (11761932_at) / RFU CAPN14 (11732068_a_at) / Fold change /veh CAPN14 (11732068_a_at) / RFU TMCC2 (11721928_a_at) / Fold change /veh TMCC2 (11721928_a_at) / RFU IRGQ (11745062_a_at) / Fold change /veh IRGQ (11745062_a_at) / RFU FAM174B (11720279_a_at) / Fold change /veh FAM174B (11720279_a_at) / RFU TMPRSS4 (11748680_a_at) / Fold change /veh TMPRSS4 (11748680_a_at) / RFU FAM212B (11763350_a_at) / Fold change /veh FAM212B (11763350_a_at) / RFU PLEKHG5 (11743358_a_at) / Fold change /veh PLEKHG5 (11743358_a_at) / RFU ZSCAN30 (11745921_a_at) / Fold change /veh ZSCAN30 (11745921_a_at) / RFU CMKLR1 (11741424_a_at) / Fold change /veh CMKLR1 (11741424_a_at) / RFU LOC101060620 /// MAPK8IP1 (11723275_at) / Fold change /veh LOC101060620 /// MAPK8IP1 (11723275_at) / RFU SPTSSB (11747773_x_at) / Fold change /veh SPTSSB (11747773_x_at) / RFU PRSS12 (11739890_at) / Fold change /veh PRSS12 (11739890_at) / RFU BIN1 (11741810_x_at) / Fold change /veh BIN1 (11741810_x_at) / RFU WNT11 (11732464_a_at) / Fold change /veh WNT11 (11732464_a_at) / RFU C10orf10 (11716521_a_at) / Fold change /veh C10orf10 (11716521_a_at) / RFU C5orf56 (11738089_at) / Fold change /veh C5orf56 (11738089_at) / RFU CYB561 (11721691_x_at) / Fold change /veh CYB561 (11721691_x_at) / RFU ANKRD19P (11752326_a_at) / Fold change /veh ANKRD19P (11752326_a_at) / RFU OR2T12 /// OR2T33 /// OR2T8 (11738714_s_at) / Fold change /veh OR2T12 /// OR2T33 /// OR2T8 (11738714_s_at) / RFU VCAN (11748164_a_at) / Fold change /veh VCAN (11748164_a_at) / RFU JSRP1 (11732532_at) / Fold change /veh JSRP1 (11732532_at) / RFU KRTAP10-11 (11738290_x_at) / Fold change /veh KRTAP10-11 (11738290_x_at) / RFU MYO3A (11730013_a_at) / Fold change /veh MYO3A (11730013_a_at) / RFU EBF3 (11725865_a_at) / Fold change /veh EBF3 (11725865_a_at) / RFU CAMK2N1 (11719241_x_at) / Fold change /veh CAMK2N1 (11719241_x_at) / RFU C5orf56 (11738088_a_at) / Fold change /veh C5orf56 (11738088_a_at) / RFU OLFML3 (11715873_a_at) / Fold change /veh OLFML3 (11715873_a_at) / RFU LOC100653217 /// NTM (11731650_a_at) / Fold change /veh LOC100653217 /// NTM (11731650_a_at) / RFU MAPK11 (11762145_a_at) / Fold change /veh MAPK11 (11762145_a_at) / RFU FIZ1 (11724087_x_at) / Fold change /veh FIZ1 (11724087_x_at) / RFU OASL (11726364_x_at) / Fold change /veh OASL (11726364_x_at) / RFU SOX15 (11748057_x_at) / Fold change /veh SOX15 (11748057_x_at) / RFU CD79A (11719716_a_at) / Fold change /veh CD79A (11719716_a_at) / RFU HIST1H1D (11736915_at) / Fold change /veh HIST1H1D (11736915_at) / RFU CASKIN2 (11723855_a_at) / Fold change /veh CASKIN2 (11723855_a_at) / RFU LOC730098 (11760151_x_at) / Fold change /veh LOC730098 (11760151_x_at) / RFU OR4N2 (11742367_at) / Fold change /veh OR4N2 (11742367_at) / RFU PRRT2 (11749266_a_at) / Fold change /veh PRRT2 (11749266_a_at) / RFU SNX32 (11753110_a_at) / Fold change /veh SNX32 (11753110_a_at) / RFU CDHR5 (11726645_a_at) / Fold change /veh CDHR5 (11726645_a_at) / RFU RCAN1 (11760418_a_at) / Fold change /veh RCAN1 (11760418_a_at) / RFU FAM167A (11723789_a_at) / Fold change /veh FAM167A (11723789_a_at) / RFU FAM26E (11764081_at) / Fold change /veh FAM26E (11764081_at) / RFU ISYNA1 (11749810_s_at) / Fold change /veh ISYNA1 (11749810_s_at) / RFU ACY1 (11761880_at) / Fold change /veh ACY1 (11761880_at) / RFU 11764098_at / Fold change /veh 11764098_at / RFU SAMD14 (11745864_x_at) / Fold change /veh SAMD14 (11745864_x_at) / RFU NPB (11741838_a_at) / Fold change /veh NPB (11741838_a_at) / RFU TMPRSS6 (11731388_a_at) / Fold change /veh TMPRSS6 (11731388_a_at) / RFU KRTAP10-2 (11738614_at) / Fold change /veh KRTAP10-2 (11738614_at) / RFU ARHGAP8 /// PRR5-ARHGAP8 (11727945_x_at) / Fold change /veh ARHGAP8 /// PRR5-ARHGAP8 (11727945_x_at) / RFU KRTAP5-7 /// NADSYN1 (11734609_at) / Fold change /veh KRTAP5-7 /// NADSYN1 (11734609_at) / RFU RASL12 (11751679_a_at) / Fold change /veh RASL12 (11751679_a_at) / RFU CDKN2B (11736163_a_at) / Fold change /veh CDKN2B (11736163_a_at) / RFU PRF1 (11729649_at) / Fold change /veh PRF1 (11729649_at) / RFU, ZNF638 /// ZNF638-IT1 / Fold change vs veh, ZNF638 /// ZNF638-IT1 / RFU, PANK3 / Fold change vs veh, PANK3 / RFU, SH3YL1 / Fold change vs veh, SH3YL1 / RFU, ZEB2 / Fold change vs veh, ZEB2 / RFU, NRIP1 / Fold change vs veh, NRIP1 / RFU, PTTG1IP / Fold change vs veh, PTTG1IP / RFU, CAPN2 / Fold change vs veh, CAPN2 / RFU, MED14 / Fold change vs veh, MED14 / RFU, SNORA58 / Fold change vs veh, SNORA58 / RFU, C1orf63 / Fold change vs veh, C1orf63 / RFU, LRRFIP1 / Fold change vs veh, LRRFIP1 / RFU, NDUFAF7 / Fold change vs veh, NDUFAF7 / RFU, SLC12A2 / Fold change vs veh, SLC12A2 / RFU, IBTK / Fold change vs veh, IBTK / RFU, ESF1 / Fold change vs veh, ESF1 / Fold change vs veh, TMEM50B / RFU, TAOK1 / Fold change vs veh, TAOK1 / RFU, ACBD3 / Fold change vs veh, ACBD3 / RFU, TMA16 / Fold change vs veh, TMA16 / RFU, RWDD3 / Fold change vs veh, RWDD3 / RFU, BCAT1 / Fold change vs veh, BCAT1 / RFU, EDEM3 / Fold change vs veh, EDEM3 / RFU, TMEM33 / Fold change vs veh, TMEM33 / RFU, WDR75 / Fold change vs veh, WDR75 / RFU, AHCTF1 / Fold change vs veh, AHCTF1 / RFU, TFRC / Fold change vs veh, TFRC / RFU, ZDHHC17 / Fold change vs veh, ZDHHC17 / RFU, NOM1 / Fold change vs veh, NOM1 / RFU, ARL8B / Fold change vs veh, ARL8B / RFU, ZBTB11 / Fold change vs veh, ZBTB11 / RFU, TAMM41 / Fold change vs veh, TAMM41 / RFU, KIAA1704 /// LOC100996395 / Fold change vs veh, KIAA1704 /// LOC100996395 / RFU, ING1 / Fold change vs veh, ING1 / RFU, TRMT61B / Fold change vs veh, TRMT61B / RFU, FUBP3 / Fold change vs veh, FUBP3 / RFU, TP53 / Fold change vs veh, TP53 / RFU, TNKS2 / Fold change vs veh, TNKS2 / RFU, ZFP14 / Fold change vs veh, ZFP14 / RFU, ACTR2 / Fold change vs veh, ACTR2 / RFU, PPP3R1 / Fold change vs veh, PPP3R1 / RFU, PIK3R1 / Fold change vs veh, PIK3R1 / RFU, HNRNPA1 / Fold change vs veh, HNRNPA1 / RFU, RNF170 / Fold change vs veh, RNF170 / RFU, ZNF28 / Fold change vs veh, ZNF28 / RFU, RNGTT / Fold change vs veh, RNGTT / RFU, OGT / Fold change vs veh, OGT / RFU, BRD1 / Fold change vs veh, BRD1 / RFU, MARS / Fold change vs veh, MARS / RFU, ZNF655 / Fold change vs veh, ZNF655 / RFU, FAHD1 / Fold change vs veh, FAHD1 / RFU, BDP1 / Fold change vs veh, BDP1 / RFU, LRRCC1 / Fold change vs veh, LRRCC1 / RFU, ARID1A / Fold change vs veh, ARID1A / RFU, ZNF146 / Fold change vs veh, ZNF146 / RFU, ZNF330 / Fold change vs veh, ZNF330 / RFU, GPN3 / Fold change vs veh, GPN3 / RFU, C9orf123 / Fold change vs veh, C9orf123 / RFU, N4BP2L2 / Fold change vs veh, N4BP2L2 / RFU, ARFIP1 / Fold change vs veh, ARFIP1 / RFU, FAM179B / Fold change vs veh, FAM179B / RFU, BCL10 / Fold change vs veh, BCL10 / RFU, UHRF1BP1L / Fold change vs veh, UHRF1BP1L / RFU, BET1 / Fold change vs veh, BET1 / RFU, CNOT2 / Fold change vs veh, CNOT2 / RFU, ZNF268 / Fold change vs veh, ZNF268 / Fold change vs veh, ZNF507 / RFU, DGCR2 / Fold change vs veh, DGCR2 / RFU, WDSUB1 / Fold change vs veh, WDSUB1 / Fold change vs veh, HSP90B1 /// MIR3652 / RFU, ADSS / Fold change vs veh, ADSS / RFU, GK / Fold change vs veh, GK / RFU, ZNF148 / Fold change vs veh, ZNF148 / RFU, TAF9 / Fold change vs veh, TAF9 / RFU, SLC1A5 / Fold change vs veh, SLC1A5 / RFU, SLMO2 / Fold change vs veh, SLMO2 / RFU, ABCC4 / Fold change vs veh, ABCC4 / RFU, LOC101060439 /// RAP1B / Fold change vs veh, LOC101060439 /// RAP1B / RFU, RFX7 / Fold change vs veh, RFX7 / RFU, GTPBP10 / Fold change vs veh, GTPBP10 / RFU, CNEP1R1 / Fold change vs veh, CNEP1R1 / RFU, BIVM-ERCC5 /// ERCC5 / Fold change vs veh, BIVM-ERCC5 /// ERCC5 / RFU, ILF3 / Fold change vs veh, ILF3 / RFU 11762660_at / Fold change /veh 11762660_at / RFU VCAN (11757783_s_at) / Fold change /veh VCAN (11757783_s_at) / RFU DDX43 (11728927_at) / Fold change /veh DDX43 (11728927_at) / RFU KRT8 (11758188_x_at) / Fold change /veh KRT8 (11758188_x_at) / RFU NKD1 (11759106_at) / Fold change /veh NKD1 (11759106_at) / RFU SRD5A1 (11742802_a_at) / Fold change /veh SRD5A1 (11742802_a_at) / RFU TPSAB1 /// TPSB2 (11721975_s_at) / Fold change /veh TPSAB1 /// TPSB2 (11721975_s_at) / RFU GSTM3 (11746129_a_at) / Fold change /veh GSTM3 (11746129_a_at) / RFU IL23R (11737362_x_at) / Fold change /veh IL23R (11737362_x_at) / RFU TMEM51 (11727254_a_at) / Fold change /veh TMEM51 (11727254_a_at) / RFU PIWIL2 (11732686_x_at) / Fold change /veh PIWIL2 (11732686_x_at) / RFU ORM1 (11744905_x_at) / Fold change /veh ORM1 (11744905_x_at) / RFU CCDC152 (11743942_at) / Fold change /veh CCDC152 (11743942_at) / RFU ECM1 (11717891_a_at) / Fold change /veh ECM1 (11717891_a_at) / RFU IL23R (11748794_a_at) / Fold change /veh IL23R (11748794_a_at) / RFU TNFAIP8L3 (11732012_x_at) / Fold change /veh TNFAIP8L3 (11732012_x_at) / RFU MBOAT4 (11741988_at) / Fold change /veh MBOAT4 (11741988_at) / RFU 11764193_at / Fold change /veh 11764193_at / RFU TMEM53 (11763286_at) / Fold change /veh TMEM53 (11763286_at) / RFU MAGEB2 (11727129_at) / Fold change /veh MAGEB2 (11727129_at) / RFU TMEM200A (11744735_a_at) / Fold change /veh TMEM200A (11744735_a_at) / RFU CCDC152 (11751479_a_at) / Fold change /veh CCDC152 (11751479_a_at) / RFU FAM211A (11726209_a_at) / Fold change /veh FAM211A (11726209_a_at) / RFU RGS16 (11746705_a_at) / Fold change /veh RGS16 (11746705_a_at) / RFU VCAN (11755009_s_at) / Fold change /veh VCAN (11755009_s_at) / RFU RHOB (11743442_s_at) / Fold change /veh RHOB (11743442_s_at) / RFU RGS16 (11720943_a_at) / Fold change /veh RGS16 (11720943_a_at) / RFU RGS16 (11720944_at) / Fold change /veh RGS16 (11720944_at) / RFU, VPS4B / Fold change vs veh, VPS4B / RFU, CREB1 / Fold change vs veh, CREB1 / RFU, DNAJC13 / Fold change vs veh, DNAJC13 / RFU, GNAQ / Fold change vs veh, GNAQ / RFU, CDK5R1 / Fold change vs veh, CDK5R1 / RFU, ZRANB3 / Fold change vs veh, ZRANB3 / RFU, CUL4A / Fold change vs veh, CUL4A / RFU, CCNY / Fold change vs veh, CCNY / RFU, UFL1 / Fold change vs veh, UFL1 / RFU, COG3 / Fold change vs veh, COG3 / RFU, DIAPH2 / Fold change vs veh, DIAPH2 / RFU, SKA2 / Fold change vs veh, SKA2 / RFU, AFF3 / Fold change vs veh, AFF3 / RFU, LMF1 / Fold change vs veh, LMF1 / RFU, IPO11 / Fold change vs veh, IPO11 / RFU, DFFB / Fold change vs veh, DFFB / RFU, FOXP1 / Fold change vs veh, FOXP1 / RFU, CARD8 / Fold change vs veh, CARD8 / RFU, STRN3 / Fold change vs veh, STRN3 / RFU, ADK / Fold change vs veh, ADK / RFU, RASSF2 / Fold change vs veh, RASSF2 / RFU, WIPF1 / Fold change vs veh, WIPF1 / RFU, LARP1B / Fold change vs veh, LARP1B / RFU, RASA1 / Fold change vs veh, RASA1 / RFU, RB1 / Fold change vs veh, RB1 / RFU, PPFIA1 / Fold change vs veh, PPFIA1 / RFU, MAT2A / Fold change vs veh, MAT2A / RFU, CCT5 / Fold change vs veh, CCT5 / RFU, WDR92 / Fold change vs veh, WDR92 / RFU, CUX1 / Fold change vs veh, CUX1 / RFU, TTC7A / Fold change vs veh, TTC7A / RFU, TMEM135 / Fold change vs veh, TMEM135 / RFU, DEPTOR / Fold change vs veh, DEPTOR / RFU, CPM / Fold change vs veh, CPM / RFU, DNAJB6 / Fold change vs veh, DNAJB6 / RFU, CACNA2D3 / Fold change vs veh, CACNA2D3 / RFU, DTX4 / Fold change vs veh, DTX4 / RFU, TFCP2 / Fold change vs veh, TFCP2 / RFU, GMCL1 /// GMCL1P1 / Fold change vs veh, GMCL1 /// GMCL1P1 / RFU, AEBP2 / Fold change vs veh, AEBP2 / RFU, SNHG1 /// SNORD22 /// SNORD25 /// SNORD26 /// SNORD27 /// SNORD28 /// SNORD29 /// SNORD31 / Fold change vs veh, SNHG1 /// SNORD22 /// SNORD25 /// SNORD26 /// SNORD27 /// SNORD28 /// SNORD29 /// SNORD31 / Fold change (Aza/veh), C12orf56 (ProbeSet 11735607_a_at) / Fold change (ACY-1035/veh), C12orf56 (ProbeSet 11735607_a_at) / Fold change (Aza/veh), FGFR1OP (ProbeSet 11751329_s_at) / Fold change (ACY-1035/veh), FGFR1OP (ProbeSet 11751329_s_at) / Fold change (Aza/veh), VPS36 (ProbeSet 11739960_a_at) / Fold change (ACY-1035/veh), VPS36 (ProbeSet 11739960_a_at) / RFU SYPL1 (11715823_x_at) / Fold change /veh SYPL1 (11715823_x_at) / RFU IGFBP7 (11715501_s_at) / Fold change /veh IGFBP7 (11715501_s_at) / RFU REEP3 (11722064_at) / Fold change /veh REEP3 (11722064_at) / RFU IGLL1 (11728026_x_at) / Fold change /veh IGLL1 (11728026_x_at): dose or concentration left out as unconfirmed.

As to `Nc1ncn([C@@H]2O[C@H](CO)[C@@H](O)[C@H]2O)c(=O)n1` [azacitidine], the “RFU, ZNF146” value was 2051.58 RFU.
